This note sets out measurements from ChEMBL document CHEMBL4507278 (2021).

Bounds are passed on as bounds.

In data set [1] the test system is Epidermal growth factor receptor (Homo sapiens), P00533 [UNDEFINED MUTATION]. As to conditions: Compound concentration 1000.0 nM; call rule not given here.
In data set [2] the target is 5-hydroxytryptamine receptor 2C (Homo sapiens) (UniProt P28335). The conditions noted are these: Compound concentration 10.0 uM.
Data set [3] has as its target 5-hydroxytryptamine receptor 6 (Homo sapiens) (UniProt P50406). As to conditions: Compound concentration 10.0 uM.
Data set [4] has as its target C-C chemokine receptor type 1 (Homo sapiens, UniProt P32246). The experiment in a line: Ca flux.
Data set [5] concerns the target Ephrin type-A receptor 7 (Homo sapiens) (UniProt Q15375). As to conditions: Compound concentration 1000.0 nM.
Data set [6] has as its target Serine/threonine-protein kinase ULK2 (Homo sapiens) (UniProt Q8IYT8). The conditions noted are these: Compound concentration 1000.0 nM.
Data set [7] addresses RAC-beta serine/threonine-protein kinase (Homo sapiens) (UniProt P31751). As to conditions: Compound concentration 1000.0 nM.
Data set [8] deals with Homeodomain-interacting protein kinase 1 (Homo sapiens) (UniProt Q86Z02). As to conditions: Compound concentration 1000.0 nM.
Data set [9] concerns the target Leukocyte tyrosine kinase receptor (Homo sapiens) (UniProt P29376). As to conditions: Compound concentration 1000.0 nM.
Data set [10] concerns the target Endothelin receptor type B (Homo sapiens) (UniProt P24530). The experiment in a line: ETB/HUM Eurofins-Panlabs selectivity data (BI). As to conditions: Compound concentration 10.0 uM.
Data set [11] addresses Neuropeptide Y receptor type 2 (Homo sapiens) (UniProt P49146). The experiment in a line: Y2/HU Eurofins-Panlabs selectivity data (BI). The conditions noted are these: Compound concentration 10.0 uM.
Data set [12] deals with P2X purinoceptor (Oryctolagus cuniculus) (UniProt G1U3D6). The experiment in a line: P2X/RB Eurofins-Panlabs selectivity data (BI). The conditions noted are these: Compound concentration 10.0 uM.
The target in data set [13] is Sodium-dependent serotonin transporter (Homo sapiens) (UniProt P31645). The experiment in a line: 5HTTRANS/HU Eurofins-Panlabs selectivity data (BI). As to conditions: Compound concentration 10.0 uM.
The target of data set [14] is Sodium channel regulatory subunit beta-1 (Rattus norvegicus) (UniProt Q00954). As to the kind of experiment: NA+/SITE2/RA Eurofins-Panlabs selectivity data (BI). As to conditions: Compound concentration 10.0 uM.
Data set [15] has as its target Sodium- and chloride-dependent GABA transporter 1 (Rattus norvegicus) (UniProt P23978). As to the kind of experiment: GABATRANS/RA Eurofins-Panlabs selectivity data (BI). As to conditions: Compound concentration 10.0 uM.
Data set [16] concerns the target Alpha-1A adrenergic receptor (Rattus norvegicus) (UniProt P43140). The experiment in a line: ALPHA1A/R Eurofins-Panlabs selectivity data (BI). As to conditions: Compound concentration 10.0 uM.
Data set [17] addresses D(2) dopamine receptor (Homo sapiens) (UniProt P14416). The experiment in a line: D2S/HU Eurofins-Panlabs selectivity data (BI). The conditions noted are these: Compound concentration 10.0 uM.
In data set [18] the target is Glutamate receptor ionotropic, NMDA 1 (Rattus norvegicus) (UniProt P35439). As to the kind of experiment: NMDAGLSI/RA Eurofins-Panlabs selectivity data (BI). The conditions noted are these: Compound concentration 10.0 uM.
For data set [19], the target named is Beta-1 adrenergic receptor (Homo sapiens, UniProt P08588). The experiment in a line: GPCRScan assay: inhibition of Beta1. Set-up: radioligand conc. used [nm] 0.1 – 0.2, parental cells CHO Flp-In.
For data set [20], the target named is T1, 5-hydroxytryptamine receptor 3A (Homo sapiens) (UniProt P46098).
T1 sequence (whole entry): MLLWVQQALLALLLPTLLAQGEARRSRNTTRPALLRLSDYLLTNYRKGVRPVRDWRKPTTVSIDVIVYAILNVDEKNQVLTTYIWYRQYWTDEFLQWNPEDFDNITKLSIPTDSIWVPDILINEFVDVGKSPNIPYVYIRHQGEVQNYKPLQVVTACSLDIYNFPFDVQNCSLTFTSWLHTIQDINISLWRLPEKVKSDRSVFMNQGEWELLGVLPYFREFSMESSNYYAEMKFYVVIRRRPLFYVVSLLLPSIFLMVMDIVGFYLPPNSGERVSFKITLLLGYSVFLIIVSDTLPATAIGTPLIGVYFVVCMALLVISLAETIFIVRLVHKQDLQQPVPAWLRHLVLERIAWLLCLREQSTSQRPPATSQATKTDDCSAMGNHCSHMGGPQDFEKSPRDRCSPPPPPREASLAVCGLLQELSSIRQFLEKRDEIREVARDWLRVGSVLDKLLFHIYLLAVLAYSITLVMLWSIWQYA
The experiment in a line: 5HT3/HU Eurofins-Panlabs selectivity data (BI). The conditions noted are these: Compound concentration 10.0 uM.

For data set [21], the target named is Melatonin receptor type 1A (Homo sapiens) (UniProt P48039). The experiment in a line: MT1/H Eurofins-Panlabs selectivity data (BI). The conditions noted are these: Compound concentration 10.0 uM.
The target of data set [22] is Neuropeptide Y receptor type 1 (Homo sapiens) (UniProt P25929). As to the kind of experiment: Y1/HU Eurofins-Panlabs selectivity data (BI). The conditions noted are these: Compound concentration 10.0 uM.
Data set [23] deals with ATP-sensitive inward rectifier potassium channel 1 isoform X1 (Mesocricetus auratus) (UniProt A0A1U8CU73). The experiment in a line: K+/KATP/HA Eurofins-Panlabs selectivity data (BI). As to conditions: Compound concentration 10.0 uM.
The target of data set [24] is Substance-P receptor (Homo sapiens) (UniProt P25103). As to the kind of experiment: NK1/HU Eurofins-Panlabs selectivity data (BI). As to conditions: Compound concentration 10.0 uM.
Data set [25] deals with P2Y purinoceptor 1 (Rattus norvegicus) (UniProt P49651). As to the kind of experiment: P2Y/RAT Eurofins-Panlabs selectivity data (BI). The conditions noted are these: Compound concentration 10.0 uM.
Data set [26] concerns the target Adenosine receptor A1 (Homo sapiens) (UniProt P30542). The experiment in a line: A1/HU Eurofins-Panlabs selectivity data (BI). The conditions noted are these: Compound concentration 10.0 uM.
Data set [27] deals with Thyroid hormone receptor alpha (Rattus norvegicus) (UniProt P63059). As to the kind of experiment: THYROID HORM Eurofins-Panlabs selectivity data (BI). As to conditions: Compound concentration 10.0 uM.
The target in data set [28] is Muscarinic acetylcholine receptor M1 (Homo sapiens) (UniProt P11229). As to the kind of experiment: M1/HU Eurofins-Panlabs selectivity data (BI). The conditions noted are these: Compound concentration 10.0 uM.
Data set [29] deals with 5-hydroxytryptamine receptor 2B (Homo sapiens) (UniProt P41595). The experiment in a line: 5HT2B/HU Eurofins-Panlabs selectivity data (BI). As to conditions: Compound concentration 10.0 uM.
Data set [30] addresses B2 bradykinin receptor (Homo sapiens) (UniProt P30411). The experiment in a line: B2/H Eurofins-Panlabs selectivity data (BI). The conditions noted are these: filed as antagonist, Compound concentration 10.0 uM.
Data set [31] concerns the target Platelet-activating factor receptor (Homo sapiens) (UniProt P25105). As to the kind of experiment: PAF/H Eurofins-Panlabs selectivity data (BI). The conditions noted are these: Compound concentration 10.0 uM.
In data set [32] the target is Histamine H3 receptor (Homo sapiens) (UniProt Q9Y5N1). As to the kind of experiment: H3/H Eurofins-Panlabs selectivity data (BI). As to conditions: Compound concentration 10.0 uM.
The target of data set [33] is Glutamate receptor ionotropic, kainate 1 (Rattus norvegicus) (UniProt P22756). As to the kind of experiment: KAINATE/R Eurofins-Panlabs selectivity data (BI). As to conditions: Compound concentration 10.0 uM.
The target of data set [34] is Sodium-dependent dopamine transporter (Homo sapiens) (UniProt Q01959). The experiment in a line: DATRANS/H Eurofins-Panlabs selectivity data (BI). The conditions noted are these: Compound concentration 10.0 uM.
Data set [35] has as its target Acetylcholine receptor subunit alpha (Homo sapiens) (UniProt P02708). The experiment in a line: NACH/H Eurofins-Panlabs selectivity data (BI). As to conditions: Compound concentration 10.0 uM.
In data set [36] the target is Kappa-type opioid receptor (Homo sapiens) (UniProt P41145). The experiment in a line: KAPPA/HU Eurofins-Panlabs selectivity data (BI). As to conditions: Compound concentration 10.0 uM.
The target in data set [37] is Voltage-dependent L-type calcium channel subunit alpha-1C (diltiazem site) (Rattus norvegicus, UniProt P22002). The experiment in a line: CA+/DILSI/RA Eurofins-Panlabs selectivity data (BI). As to conditions: compound concentration 10 uM, read-out: % Ctrl.
Data set [38] addresses Prostaglandin E2 receptor EP4 subtype (Homo sapiens) (UniProt P35408). As to the kind of experiment: PEP4_HU Eurofins-Panlabs selectivity data (BI). The conditions noted are these: Compound concentration 10.0 uM.
Data set [39] deals with Adenosine receptor A3 (Homo sapiens) (UniProt P0DMS8). The experiment in a line: A3/H Eurofins-Panlabs selectivity data (BI). As to conditions: Compound concentration 10.0 uM.
Adenosine receptor A3 (Homo sapiens), sequence (P0DMS8 whole entry): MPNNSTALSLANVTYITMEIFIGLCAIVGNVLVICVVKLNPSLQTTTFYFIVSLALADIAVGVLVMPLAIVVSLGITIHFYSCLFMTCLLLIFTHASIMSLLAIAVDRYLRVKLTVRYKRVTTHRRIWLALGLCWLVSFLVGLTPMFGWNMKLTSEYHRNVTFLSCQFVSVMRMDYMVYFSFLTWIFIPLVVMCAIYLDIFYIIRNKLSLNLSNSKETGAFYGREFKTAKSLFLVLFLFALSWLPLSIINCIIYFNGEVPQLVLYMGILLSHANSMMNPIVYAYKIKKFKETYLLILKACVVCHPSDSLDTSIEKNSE

Homeodomain-interacting protein kinase 1 (Homo sapiens), sequence (Q86Z02 whole entry, looked up): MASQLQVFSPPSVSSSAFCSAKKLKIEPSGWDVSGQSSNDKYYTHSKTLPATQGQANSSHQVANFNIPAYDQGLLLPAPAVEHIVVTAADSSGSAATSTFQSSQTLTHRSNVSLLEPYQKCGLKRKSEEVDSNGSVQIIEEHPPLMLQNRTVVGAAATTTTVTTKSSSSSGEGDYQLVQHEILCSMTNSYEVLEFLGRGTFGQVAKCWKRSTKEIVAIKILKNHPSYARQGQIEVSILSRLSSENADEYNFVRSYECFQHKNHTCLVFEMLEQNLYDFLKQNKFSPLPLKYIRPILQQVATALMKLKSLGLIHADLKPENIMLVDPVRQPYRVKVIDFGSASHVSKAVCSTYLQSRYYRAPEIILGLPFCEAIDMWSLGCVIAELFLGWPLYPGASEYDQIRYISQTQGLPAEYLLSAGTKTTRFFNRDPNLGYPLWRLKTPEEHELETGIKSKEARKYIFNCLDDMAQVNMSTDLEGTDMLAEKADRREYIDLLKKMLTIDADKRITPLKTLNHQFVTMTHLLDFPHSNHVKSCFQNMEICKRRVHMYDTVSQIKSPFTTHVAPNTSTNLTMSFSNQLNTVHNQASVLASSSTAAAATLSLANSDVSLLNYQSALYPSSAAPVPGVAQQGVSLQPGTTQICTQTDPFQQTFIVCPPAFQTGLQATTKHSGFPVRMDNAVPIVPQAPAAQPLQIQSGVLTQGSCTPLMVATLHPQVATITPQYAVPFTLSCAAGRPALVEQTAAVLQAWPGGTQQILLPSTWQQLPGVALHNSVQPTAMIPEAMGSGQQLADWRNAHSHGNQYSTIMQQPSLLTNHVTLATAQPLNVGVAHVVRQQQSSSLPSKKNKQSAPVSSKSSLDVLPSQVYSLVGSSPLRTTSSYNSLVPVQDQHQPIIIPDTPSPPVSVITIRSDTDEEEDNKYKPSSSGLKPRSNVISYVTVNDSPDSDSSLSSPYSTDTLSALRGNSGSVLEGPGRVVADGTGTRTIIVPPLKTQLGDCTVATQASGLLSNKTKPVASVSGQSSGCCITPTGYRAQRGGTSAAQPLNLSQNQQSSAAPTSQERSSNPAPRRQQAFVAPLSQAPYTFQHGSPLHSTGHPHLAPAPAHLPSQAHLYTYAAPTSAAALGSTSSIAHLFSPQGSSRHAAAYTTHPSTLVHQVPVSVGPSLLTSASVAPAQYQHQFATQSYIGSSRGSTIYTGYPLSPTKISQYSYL
Adenosine receptor A1 (Homo sapiens), sequence (P30542 whole entry): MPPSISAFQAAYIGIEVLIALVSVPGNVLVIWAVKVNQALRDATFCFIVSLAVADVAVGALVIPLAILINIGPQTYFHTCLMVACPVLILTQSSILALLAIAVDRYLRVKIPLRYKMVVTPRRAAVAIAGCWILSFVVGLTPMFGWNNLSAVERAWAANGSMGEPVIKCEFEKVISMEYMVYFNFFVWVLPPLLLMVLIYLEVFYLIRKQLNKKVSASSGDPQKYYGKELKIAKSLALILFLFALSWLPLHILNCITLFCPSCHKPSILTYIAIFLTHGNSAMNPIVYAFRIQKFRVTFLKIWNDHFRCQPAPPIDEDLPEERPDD
Beta-1 adrenergic receptor, sequence (P08588 whole entry): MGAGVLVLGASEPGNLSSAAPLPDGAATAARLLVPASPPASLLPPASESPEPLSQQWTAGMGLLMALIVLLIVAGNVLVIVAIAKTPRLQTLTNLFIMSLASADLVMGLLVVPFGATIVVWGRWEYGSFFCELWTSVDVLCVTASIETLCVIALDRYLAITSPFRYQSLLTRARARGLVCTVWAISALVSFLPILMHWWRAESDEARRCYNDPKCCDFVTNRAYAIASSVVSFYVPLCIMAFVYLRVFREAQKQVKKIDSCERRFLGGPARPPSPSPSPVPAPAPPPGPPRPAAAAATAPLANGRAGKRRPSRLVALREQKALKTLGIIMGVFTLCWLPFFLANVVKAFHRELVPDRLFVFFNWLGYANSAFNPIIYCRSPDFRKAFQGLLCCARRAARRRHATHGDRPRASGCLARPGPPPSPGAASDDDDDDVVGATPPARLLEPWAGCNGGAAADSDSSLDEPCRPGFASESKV
P2Y purinoceptor 1 (Rattus norvegicus), sequence (P49651 whole entry): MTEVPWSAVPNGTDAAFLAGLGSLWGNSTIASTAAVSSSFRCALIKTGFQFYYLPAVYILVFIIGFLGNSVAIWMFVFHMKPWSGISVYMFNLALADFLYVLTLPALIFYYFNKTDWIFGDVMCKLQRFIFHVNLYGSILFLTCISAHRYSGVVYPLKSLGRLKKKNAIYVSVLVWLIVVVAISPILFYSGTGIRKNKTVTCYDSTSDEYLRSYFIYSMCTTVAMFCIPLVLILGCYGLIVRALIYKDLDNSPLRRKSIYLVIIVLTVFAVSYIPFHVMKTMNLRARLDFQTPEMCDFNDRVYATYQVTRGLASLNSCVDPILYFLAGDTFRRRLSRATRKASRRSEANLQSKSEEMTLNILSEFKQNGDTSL
Sodium channel regulatory subunit beta-1 (Rattus norvegicus), sequence (Q00954 whole entry): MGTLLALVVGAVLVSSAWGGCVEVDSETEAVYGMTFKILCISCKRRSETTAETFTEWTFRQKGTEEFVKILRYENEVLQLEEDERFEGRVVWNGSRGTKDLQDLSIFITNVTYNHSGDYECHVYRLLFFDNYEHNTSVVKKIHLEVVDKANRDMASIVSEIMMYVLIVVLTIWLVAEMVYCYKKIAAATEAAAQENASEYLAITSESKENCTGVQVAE
C-C chemokine receptor type 1, sequence (P32246 whole entry): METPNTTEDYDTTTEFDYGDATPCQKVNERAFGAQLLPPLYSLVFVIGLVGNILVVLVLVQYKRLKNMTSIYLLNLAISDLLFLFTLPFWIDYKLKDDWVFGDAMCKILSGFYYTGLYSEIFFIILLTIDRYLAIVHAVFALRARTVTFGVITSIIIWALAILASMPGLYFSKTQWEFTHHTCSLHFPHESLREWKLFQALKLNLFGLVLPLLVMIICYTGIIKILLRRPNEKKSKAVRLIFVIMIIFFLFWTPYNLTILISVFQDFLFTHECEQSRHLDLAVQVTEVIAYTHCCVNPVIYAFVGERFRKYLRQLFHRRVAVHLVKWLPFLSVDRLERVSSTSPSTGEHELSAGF
5-hydroxytryptamine receptor 6 (Homo sapiens), sequence (P50406 whole entry): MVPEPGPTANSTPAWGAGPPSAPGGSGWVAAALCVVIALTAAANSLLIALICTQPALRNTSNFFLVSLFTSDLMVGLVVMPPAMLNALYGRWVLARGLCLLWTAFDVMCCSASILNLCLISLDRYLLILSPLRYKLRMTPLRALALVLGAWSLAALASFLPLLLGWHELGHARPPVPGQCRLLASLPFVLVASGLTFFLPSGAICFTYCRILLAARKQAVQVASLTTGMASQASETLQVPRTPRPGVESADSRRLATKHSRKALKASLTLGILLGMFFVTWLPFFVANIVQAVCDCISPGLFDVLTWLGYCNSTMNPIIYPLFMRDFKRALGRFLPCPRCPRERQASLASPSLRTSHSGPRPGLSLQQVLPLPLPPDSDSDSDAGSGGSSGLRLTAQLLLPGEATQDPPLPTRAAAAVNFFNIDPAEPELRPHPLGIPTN
Histamine H3 receptor (Homo sapiens), sequence (Q9Y5N1 whole entry): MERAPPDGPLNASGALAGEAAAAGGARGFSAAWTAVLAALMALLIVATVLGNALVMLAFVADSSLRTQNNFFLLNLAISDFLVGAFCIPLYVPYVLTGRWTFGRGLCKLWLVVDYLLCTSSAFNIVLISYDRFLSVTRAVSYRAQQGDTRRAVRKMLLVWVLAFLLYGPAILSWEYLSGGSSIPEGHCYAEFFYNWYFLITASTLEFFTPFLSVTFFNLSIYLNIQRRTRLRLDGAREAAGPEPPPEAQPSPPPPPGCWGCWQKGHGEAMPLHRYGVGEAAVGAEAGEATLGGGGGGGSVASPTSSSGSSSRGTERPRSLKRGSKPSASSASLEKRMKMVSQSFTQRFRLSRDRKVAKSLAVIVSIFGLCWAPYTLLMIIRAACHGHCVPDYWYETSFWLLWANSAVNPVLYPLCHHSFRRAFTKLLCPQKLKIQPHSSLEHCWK

In the case of `CS(=O)(=O)NCC[C@H](NC(=O)c1cncc2c1cnn2-c1ccc(F)cc1)c1ccnc(S(C)(=O)=O)c1` [BI 9307], the residual activity in data set [1] was 71%; in data set [5] it was 82%; in data set [6], 100%; in [7], 100%; in data set [8], 100%; in data set [9], 100%. The inhibition in data set [2] is -0.86%; in [3], -4.31%. Moreover, in data set [4], the concentration for half-maximal inhibition (IC50) was > 3 µM (not active).

For `CS(=O)(=O)c1cc(C2(NC(=O)c3cncc4c3cnn4-c3ccc(F)cc3)CC2)ccn1` [BI 639667], the residual activity is 97% in data set [10]; 98% in data set [11]; 101% in data set [12]; 100% in data set [13]; 81% in data set [14]; 89% in data set [15]. For the same compound, the residual activity is 88% in [16]; 93% in data set [17]; 96% in data set [18]; 124% in [20]; 79% in data set [21]; 101% in [22]. The residual activity in data set [23] is 100%; in data set [24], 95%; in [25], 88%; in data set [26], 82%; in data set [27], 74%; in [28], 99%. In addition, the residual activity in data set [29] was 93%; in data set [30] it was 100%; in data set [31], 93%; in data set [32] it was 87%; in data set [33] it was 91%; in data set [34], 28%. The residual activity in data set [35] was 91%; in data set [36], 101%; in data set [38] it was 97%; in data set [39], 81%. Also, the inhibitory constant (Ki) in data set [19] is 1.88 µM. In [37], the activity at 10 µM is 58% (not active).
